Test results taken from article PMC9030254, “Target Hopping from Protein Kinases to PXR: Identification of Small-Molecule Protein Kinase Inhibitors as Selective Modulators of Pregnane X Receptor from TüKIC Library” (Cells, 2022).

Columns and labels:
Experiment in all cases: Kinase profiling
Type in all cases: biochemical
SIK1 = target: T1, SIK1 (Homo sapiens, UniProt P57059)
T1 construct: purchased ProQinase (Freiburg, Germany)
Description: (§1) The analysis was performed by ProQinase (Freiburg, Germany).

RPS6KA6 = target: T2, RPS6KA6 (Homo sapiens, UniProt Q9UK32)
T2 construct: purchased ProQinase (Freiburg, Germany)
T2 sequence (Q9UK32 whole entry): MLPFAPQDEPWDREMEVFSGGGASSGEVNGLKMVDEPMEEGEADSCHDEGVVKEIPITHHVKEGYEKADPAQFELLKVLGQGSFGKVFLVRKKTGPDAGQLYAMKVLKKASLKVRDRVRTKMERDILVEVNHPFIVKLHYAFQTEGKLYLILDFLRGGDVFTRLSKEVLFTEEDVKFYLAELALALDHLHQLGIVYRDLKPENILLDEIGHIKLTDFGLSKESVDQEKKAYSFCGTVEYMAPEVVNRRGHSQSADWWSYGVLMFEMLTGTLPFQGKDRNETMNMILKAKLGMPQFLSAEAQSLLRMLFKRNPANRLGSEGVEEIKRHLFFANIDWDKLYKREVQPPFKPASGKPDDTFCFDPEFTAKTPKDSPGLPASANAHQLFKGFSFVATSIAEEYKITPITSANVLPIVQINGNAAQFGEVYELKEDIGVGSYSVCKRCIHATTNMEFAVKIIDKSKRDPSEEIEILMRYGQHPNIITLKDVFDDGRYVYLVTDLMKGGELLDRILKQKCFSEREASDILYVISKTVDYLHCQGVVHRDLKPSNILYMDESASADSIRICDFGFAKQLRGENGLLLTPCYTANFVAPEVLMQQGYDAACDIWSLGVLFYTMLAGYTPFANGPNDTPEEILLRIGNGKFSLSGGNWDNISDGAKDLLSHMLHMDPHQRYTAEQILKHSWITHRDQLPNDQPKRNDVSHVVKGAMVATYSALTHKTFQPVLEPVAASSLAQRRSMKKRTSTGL
Description: as §1

EPHA1 = target: T3, EPHA1 (Homo sapiens, UniProt P21709)
T3 construct: purchased ProQinase (Freiburg, Germany)
T3 sequence (P21709 26-976): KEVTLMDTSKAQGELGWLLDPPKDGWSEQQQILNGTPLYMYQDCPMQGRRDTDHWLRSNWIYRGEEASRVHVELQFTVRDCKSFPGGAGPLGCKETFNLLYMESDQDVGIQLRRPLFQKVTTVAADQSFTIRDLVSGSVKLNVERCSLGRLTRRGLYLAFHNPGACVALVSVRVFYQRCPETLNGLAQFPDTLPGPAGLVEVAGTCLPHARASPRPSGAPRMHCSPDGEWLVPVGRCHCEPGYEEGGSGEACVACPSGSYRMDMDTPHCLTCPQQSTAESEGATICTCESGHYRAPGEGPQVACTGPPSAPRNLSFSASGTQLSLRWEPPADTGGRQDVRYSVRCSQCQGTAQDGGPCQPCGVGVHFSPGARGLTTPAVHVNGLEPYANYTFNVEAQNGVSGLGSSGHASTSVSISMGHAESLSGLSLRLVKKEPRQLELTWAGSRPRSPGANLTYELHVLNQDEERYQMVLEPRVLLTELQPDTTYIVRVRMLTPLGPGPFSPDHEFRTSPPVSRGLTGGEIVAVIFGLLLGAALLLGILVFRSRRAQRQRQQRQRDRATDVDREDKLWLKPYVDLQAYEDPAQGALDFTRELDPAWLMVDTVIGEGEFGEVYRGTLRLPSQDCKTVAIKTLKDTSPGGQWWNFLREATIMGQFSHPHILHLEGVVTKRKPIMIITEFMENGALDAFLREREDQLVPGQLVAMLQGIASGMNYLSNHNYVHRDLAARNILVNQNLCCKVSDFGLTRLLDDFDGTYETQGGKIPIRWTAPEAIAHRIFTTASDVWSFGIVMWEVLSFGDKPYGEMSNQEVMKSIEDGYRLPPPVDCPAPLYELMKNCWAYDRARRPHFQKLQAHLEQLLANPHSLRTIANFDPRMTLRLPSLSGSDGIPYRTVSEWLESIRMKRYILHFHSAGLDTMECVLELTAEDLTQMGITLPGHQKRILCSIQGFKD
Description: as §1

MARK4 = target: T4, MARK4 (Homo sapiens, UniProt Q96L34)
T4 construct: purchased ProQinase (Freiburg, Germany)
T4 sequence (Q96L34 1-752): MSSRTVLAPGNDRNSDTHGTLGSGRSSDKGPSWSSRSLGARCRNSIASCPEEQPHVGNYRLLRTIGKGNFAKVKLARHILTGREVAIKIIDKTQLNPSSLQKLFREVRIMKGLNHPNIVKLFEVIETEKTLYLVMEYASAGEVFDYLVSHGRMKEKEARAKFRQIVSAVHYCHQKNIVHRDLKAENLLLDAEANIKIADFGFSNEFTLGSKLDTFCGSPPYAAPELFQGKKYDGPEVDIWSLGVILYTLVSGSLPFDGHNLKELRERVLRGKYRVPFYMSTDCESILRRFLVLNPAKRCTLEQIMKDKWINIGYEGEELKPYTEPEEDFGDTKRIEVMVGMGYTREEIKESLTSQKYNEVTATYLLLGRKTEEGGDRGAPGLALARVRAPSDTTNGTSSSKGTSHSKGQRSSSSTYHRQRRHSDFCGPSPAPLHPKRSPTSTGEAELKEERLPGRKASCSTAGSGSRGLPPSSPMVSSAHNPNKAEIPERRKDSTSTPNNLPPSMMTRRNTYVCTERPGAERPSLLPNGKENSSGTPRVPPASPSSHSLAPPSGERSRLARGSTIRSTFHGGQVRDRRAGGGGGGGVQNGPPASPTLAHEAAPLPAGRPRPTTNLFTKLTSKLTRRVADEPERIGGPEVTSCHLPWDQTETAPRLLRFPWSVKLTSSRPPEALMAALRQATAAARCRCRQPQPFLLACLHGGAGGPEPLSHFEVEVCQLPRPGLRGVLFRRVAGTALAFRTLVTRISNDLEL
Description: as §1

ACVR1B = target: T5, ACVR1B (Homo sapiens, UniProt P36896)
T5 construct: purchased ProQinase (Freiburg, Germany)
T5 sequence (P36896 24-505): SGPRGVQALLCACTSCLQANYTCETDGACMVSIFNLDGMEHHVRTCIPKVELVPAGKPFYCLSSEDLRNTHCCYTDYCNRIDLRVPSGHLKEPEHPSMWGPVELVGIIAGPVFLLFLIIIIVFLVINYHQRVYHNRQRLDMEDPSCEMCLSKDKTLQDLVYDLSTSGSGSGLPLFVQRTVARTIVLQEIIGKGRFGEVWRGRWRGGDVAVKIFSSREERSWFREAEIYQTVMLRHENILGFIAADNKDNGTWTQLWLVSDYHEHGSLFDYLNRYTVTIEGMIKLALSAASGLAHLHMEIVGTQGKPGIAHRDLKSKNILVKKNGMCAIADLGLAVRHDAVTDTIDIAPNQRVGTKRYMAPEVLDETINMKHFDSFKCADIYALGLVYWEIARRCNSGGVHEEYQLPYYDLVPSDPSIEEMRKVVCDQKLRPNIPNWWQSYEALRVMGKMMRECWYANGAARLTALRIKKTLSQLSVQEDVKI
Description: as §1

T1 sequence (P57059 whole entry): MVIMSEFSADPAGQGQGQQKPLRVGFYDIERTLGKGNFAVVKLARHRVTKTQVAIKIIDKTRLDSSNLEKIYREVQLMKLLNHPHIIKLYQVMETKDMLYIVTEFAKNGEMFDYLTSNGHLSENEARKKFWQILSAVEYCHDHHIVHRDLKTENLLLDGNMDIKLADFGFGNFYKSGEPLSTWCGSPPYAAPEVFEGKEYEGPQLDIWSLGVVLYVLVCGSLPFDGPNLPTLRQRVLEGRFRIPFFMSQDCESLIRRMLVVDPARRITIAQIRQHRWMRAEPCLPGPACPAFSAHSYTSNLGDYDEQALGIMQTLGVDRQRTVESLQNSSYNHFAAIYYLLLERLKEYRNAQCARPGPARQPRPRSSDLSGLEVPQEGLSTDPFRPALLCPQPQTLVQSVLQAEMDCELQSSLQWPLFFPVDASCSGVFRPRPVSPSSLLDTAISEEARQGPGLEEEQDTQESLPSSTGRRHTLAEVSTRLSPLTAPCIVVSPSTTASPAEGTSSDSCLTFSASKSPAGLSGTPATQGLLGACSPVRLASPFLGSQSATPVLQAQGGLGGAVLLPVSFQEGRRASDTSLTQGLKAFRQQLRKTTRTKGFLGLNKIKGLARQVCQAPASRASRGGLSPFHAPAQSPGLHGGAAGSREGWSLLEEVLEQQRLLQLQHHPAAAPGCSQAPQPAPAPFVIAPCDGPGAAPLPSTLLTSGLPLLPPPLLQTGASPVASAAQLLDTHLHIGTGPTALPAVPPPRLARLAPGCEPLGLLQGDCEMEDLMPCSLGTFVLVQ

SMILES | Residual activity (SIK1; 1.0E-05 M) | Residual activity (SIK1; 1.0E-06 M) | Residual activity (RPS6KA6; 1.0E-05 M) | Residual activity (RPS6KA6; 1.0E-06 M) | Residual activity (EPHA1; 1.0E-05 M) | Residual activity (EPHA1; 1.0E-06 M) | Residual activity (MARK4; 1.0E-05 M) | Residual activity (MARK4; 1.0E-06 M) | Residual activity (ACVR1B; 1.0E-05 M) | Residual activity (ACVR1B; 1.0E-06 M)
O=C(Cc1ccccc1)Nc1ccc(F)c(Nc2ccc3c(c2)CCCCC3=O)c1 [Compound 100] | 86 % of control | 84 % of control | 83 % of control | 90 % of control | 71 % of control | 83 % of control | 94 % of control | 99 % of control | 90 % of control | 92 % of control
O=C(Nc1ccc(F)c(Nc2ccc3c(c2)CCCCC3=O)c1)c1cccc(F)c1 [Compound 109] | 83 % of control | 89 % of control | 81 % of control | 88 % of control | 85 % of control | 91 % of control | 91 % of control | 102 % of control | 87 % of control | 98 % of control
